# System: 610 metabolites from 63 biochemical pathways
# Assay: Targeted broad-spectrum plasma metabolomic analysis (LC-MS/MS), paired pre-infusion vs post-infusion (2-days and 6-weeks)
# Format: in vivo, human
# Conditions: for Linear Ratio / VIP Score / Z Abs / Z Score: plasma
# Description: Targeted, broad-spectrum, plasma metabolomic analysis of 610 metabolites from 63 biochemical pathways was performed by high performance liquid chromatography and tandem mass spectrometry (LC-MS/MS) on the samples collected from patients in Example 1. Venous blood was collected between the hours of 8 am and 5 pm, at least 3 hours after the last meal, into lithium-heparin vacutainer tubes (BD #367884). Plasma was separated by centrifugation at 900 g×10 minutes at room temperature within one hour of collection. The resulting fresh lithium-heparin plasma was transferred to labeled 1.2 ml or 2.0 ml externally threaded cryotubes with a minimum headspace air gap for storage at −80° C. for analysis. Samples were analyzed on an AB SCIEX QTRAP 5500 triple quadrupole mass spectrometer equipped with a Turbo V electrospray ionization (ESI) source, Shimadzu LC-20A UHPLC system, and a PAL CTC autosampler. Typically, 90 μl of plasma was thawed on ice and transferred to a 1.7 ml Eppendorf tube. Five (5.0) μl of a cocktail containing 25-35 commercial stable isotope internal standards, and 5.0 μl of 57 stable isotope internal standards that were custom-synthesized in E. coli NCM3722, Caenorhabditis elegans N2, and Komagataella phaffii (ATCC 76273; formerly known as Pichia pastoris) by metabolic labeling with 13C-glucose and 13C-bicarbonate, were added, mixed, and incubated for 10 min at 20° C. to permit small molecules and vitamins in the internal standards to associate with plasma binding proteins. Macromolecules (protein, DNA, RNA, glycans, etc.) were precipitated by extraction with 4 volumes (400 μl) of cold (−20° C.), acetonitrile:methanol (50:50) (LCMS grade, Cat #LC015-2.5 and GC230-4, Burdick & Jackson, Honeywell), vortexed vigorously, and incubated on crushed ice for 10 min, then removed by centrifugation at 16,000 g×10 min at 4° C. The supernatants containing the extracted metabolites and internal standards in the resulting 40:40:20 solvent mix of acetonitrile:methanol:water were transferred to labeled cryotubes and stored at −80° C. for LCMS/MS analysis.
# LC-MS/MS analysis was performed by scheduled multiple reaction monitoring (sMRM) under Analyst v1.6.2 software control in both negative and positive mode with rapid polarity switching (50 ms). Nitrogen was used for curtain gas (set to 30), collision gas (set to high), ion source gas 1 and 2 (set to 35). The source temperature was 500° C. Spray voltage was set to −4500 V in negative mode and 5500 V in positive mode. The values for Q1 and Q3 mass-to-charge ratios (m/z), declustering potential (DP), entrance potential (EP), collision energy (CE), and collision cell exit potential (CXP) were determined and optimized for each MRM for each metabolite. Ten microliters of extract was injected by PAL CTC autosampler via a 10 μl stainless steel loop into a 250 mm×2.0 mm, 4 μm polymer based NH2 HPLC column (Asahipak NH2P-40 2E, Showa Denko America, Inc., NY) held at 25° C. for chromatographic separation. The mobile phase was solvent A: 95% water with 20 mM (NH4)2CO3 (Sigma, Fluka Cat #74415-250G-F), 5% acetonitrile, and 38 mM NH4OH (Sigma, Fluka Cat #17837-100ML), final pH 9.75; solvent B: 100% acetonitrile. Separation was achieved using the following gradient: 0-3.5 min: 95% B, 3.6-8 min: 85% B, 8.1-13 min: 75% B, 13.5-35 min: 0% B, 36-46 min: 95% B, 46.1 min: end. The flow rate was 200 μl/min. Pump pressures ranged from 920-2600 psi over the course of the gradient. All the samples were kept at 4° C. during analysis. The chromatographic peaks were identified using MultiQuant (v3.0, Sciex), confirmed by manual inspection, and the peak areas integrated. […]
# [1] = 1-Carbon, Folate, Formate, Glycine, Serine Metabolism, 6-weeks
# [2] = 1-Pyrroline-5-carboxylic acid, 6-weeks
# [3] = 2-Hydroxyisocaproic acid, 6-weeks
# [4] = 2-Hydroxyisovaleric acid, 6-weeks
# [5] = 3-Hydroxy-cis-5-tetradecenoylcarnitine, 6-weeks
# [6] = 4-Hydroxyphenyllactic acid, 6-weeks
# [7] = Amino Acid Metabolism (not otherwise covered), 6-weeks
# [8] = Amino-Sugar, Galactose, & Non-Glucose Metabolism, 6-weeks
# [9] = Amino-Sugar, Galactose, & Non-Glucose, 2-days
# [10] = Bioamines and Neurotransmitter Metabolism, 2-days
compound,measurement,setting,value
"Cc1ccc(C(=O)Nc2ccc(S(=O)(=O)O)c3cc(S(=O)(=O)O)cc(S(=O)(=O)O)c23)cc1NC(=O)c1cccc(NC(=O)Nc2cccc(C(=O)Nc3cc(C(=O)Nc4ccc(S(=O)(=O)O)c5cc(S(=O)(=O)O)cc(S(=O)(=O)O)c45)ccc3C)c2)c1 [Suramin, suramin]",Decreased,[1],0
same,Fold Enrichment (Obs/Exp),[1],3.6
same,Fraction of Impact (VIP Score) Explained (% of 94.6),[1],4%
same,Impact (Sum VIP Score),[1],4.0
same,Increased,[1],2
same,Observed Hits in the Top 48 Metabolites,[1],2
same,Linear Ratio,"1-Methyladenine, 6-weeks",2.287
same,VIP Score,"1-Methyladenine, 6-weeks",2.459
same,Z Abs,"1-Methyladenine, 6-weeks",2.259
same,Z Score,"1-Methyladenine, 6-weeks",2.259
same,Linear Ratio,[2],1.299
same,VIP Score,[2],2.358
same,Z Abs,[2],1.922
same,Z Score,[2],1.922
same,Linear Ratio,[3],1.306
same,VIP Score,[3],1.622
same,Z Abs,[3],0.997
same,Z Score,[3],0.997
same,Linear Ratio,[4],1.234
same,VIP Score,[4],1.988
same,Z Abs,[4],1.146
same,Z Score,[4],1.146
same,Linear Ratio,"2-Keto-L-gluconate, 6-weeks",1.239
same,VIP Score,"2-Keto-L-gluconate, 6-weeks",2.686
same,Z Abs,"2-Keto-L-gluconate, 6-weeks",2.365
same,Z Score,"2-Keto-L-gluconate, 6-weeks",2.365
same,biochemical pathways changed by suramin,2-days after the infusion,28
same,Linear Ratio,[5],0.734
same,VIP Score,[5],1.612
same,Z Abs,[5],1.056
same,Z Score,[5],−1.056
same,Linear Ratio,[6],1.294
same,VIP Score,[6],1.945
same,Z Abs,[6],1.172
same,Z Score,[6],1.172
same,pathways changed at 2-days that remained changed,6-week time point,79%
same,metabolites significantly changed by suramin (total),6-weeks,48
same,Linear Ratio,"Alanine, 6-weeks",1.322
same,VIP Score,"Alanine, 6-weeks",2.456
same,Z Abs,"Alanine, 6-weeks",1.687
same,Z Score,"Alanine, 6-weeks",1.687
same,Linear Ratio,"Allantoin, 6-weeks",1.798
same,VIP Score,"Allantoin, 6-weeks",1.882
same,Z Abs,"Allantoin, 6-weeks",1.068
same,Z Score,"Allantoin, 6-weeks",1.068
same,Decreased,[7],0
same,Fold Enrichment (Obs/Exp),[7],4.5
same,Fraction of Impact (VIP Score) Explained (% of 94.6),[7],5%
same,Impact (Sum VIP Score),[7],4.3
same,Increased,[7],2
same,Observed Hits in the Top 48 Metabolites,[7],2
same,Decreased,"Amino Acid Metabolism, 2-days",0
same,Fold Enrichment (Obs/Exp),"Amino Acid Metabolism, 2-days",1.8
same,Fraction of Impact (VIP Score) Explained (% of 119.7),"Amino Acid Metabolism, 2-days",1%
same,Impact (Sum VIP Score),"Amino Acid Metabolism, 2-days",1.8
same,Increased,"Amino Acid Metabolism, 2-days",1
same,Observed Hits in the Top 61 Metabolites,"Amino Acid Metabolism, 2-days",1
same,Decreased,[8],0
same,Fold Enrichment (Obs/Exp),[8],1.8
same,Fraction of Impact (VIP Score) Explained (% of 94.6),[8],2%
same,Impact (Sum VIP Score),[8],1.9
same,Increased,[8],1
same,Observed Hits in the Top 48 Metabolites,[8],1
same,Decreased,[9],0
same,Fold Enrichment (Obs/Exp),[9],1.4
same,Fraction of Impact (VIP Score) Explained (% of 119.7),[9],1%
same,Impact (Sum VIP Score),[9],1.6
same,Increased,[9],1
same,Observed Hits in the Top 61 Metabolites,[9],1
same,Linear Ratio,"Azelaic acid, 6-weeks",1.120
same,VIP Score,"Azelaic acid, 6-weeks",2.151
same,Z Abs,"Azelaic acid, 6-weeks",2.558
same,Z Score,"Azelaic acid, 6-weeks",2.558
same,Decreased,"Bile Acid Metabolism, 6-weeks",0
same,Fold Enrichment (Obs/Exp),"Bile Acid Metabolism, 6-weeks",4.5
same,Fraction of Impact (VIP Score) Explained (% of 94.6),"Bile Acid Metabolism, 6-weeks",6%
same,Impact (Sum VIP Score),"Bile Acid Metabolism, 6-weeks",5.7
same,Increased,"Bile Acid Metabolism, 6-weeks",3
same,Observed Hits in the Top 48 Metabolites,"Bile Acid Metabolism, 6-weeks",3
same,Decreased,"Bile Salt Metabolism, 2-days",0
same,Fold Enrichment (Obs/Exp),"Bile Salt Metabolism, 2-days",4.7
same,Fraction of Impact (VIP Score) Explained (% of 119.7),"Bile Salt Metabolism, 2-days",10%
same,Impact (Sum VIP Score),"Bile Salt Metabolism, 2-days",11.9
same,Increased,"Bile Salt Metabolism, 2-days",4
same,Observed Hits in the Top 61 Metabolites,"Bile Salt Metabolism, 2-days",4
same,Decreased,[10],2
same,Fold Enrichment (Obs/Exp),[10],1.6
same,Fraction of Impact (VIP Score) Explained (% of 119.7),[10],3%
same,Impact (Sum VIP Score),[10],3.3
same,Increased,[10],0
same,Observed Hits in the Top 61 Metabolites,[10],2
same,Decreased,"Branch Chain Amino Acid Metabolism, 2-days",0

# From patent US20190358181A1, “METHODS FOR AUTISM SPECTRUM DISORDER PHARMACOTHERAPY” (priority 2017, published 2019)
